Patent US20130338142A1, “IMIDAZOPYRAZINE SYK INHIBITORS” (Gilead Connecticut, Inc., priority 2012, published 2013)

Target: Syk (Homo sapiens, UniProt P43405)
Experiment: High throughput Syk assay (TR-FRET, KinEASE)
Assay type: biochemical
Settings: Syk TR-FRET assay of Example B2; 3 μM ATP, 0.5 nM Syk
Procedure: The following high throughput Syk assay was performed on the compounds of Table 1 as follows.
Syk activity was measured by detecting phosphorylated peptide substrate formation using antibody against phosphorylated peptide substrate. This is a time-resolved fluorescence resonance energy transfer (TR-FRET) immunoassay, based on the KinEASE Assay (Cisbio). […] Test compounds (in DMSO) were spotted into 384 well plates using a Labcyte® Echo 550 Liquid Handling System prior to addition of Syk enzyme and peptide substrate. Reaction solutions were delivered using a Multi-Flo (Bio-Tek Instruments). The enzyme and peptide solution was incubated with compound for 60 minutes at room temp before the reaction was initiated by the addition of ATP. […] The europium donor was excited using a 340-nm excitation filter with a 30-nm band pass. Energy transfer to the tracer was measured using a filter centered at 665 nm with a 10 nm bandpass. This signal was then referenced to the emission from europium peak, using a 615 nm, 10-nm bandpass filter. The “emission ratio” was calculated as the 665 nm signal divided by the 615 nm signal. Percentage of inhibition was calculated as below:
% Inhibition=100×(RatioSample−Ratio0% Inhibition)/(Ratio100% Inhibition−Ratio0% Inhibition)

| Compound | IC50 [nM] |
| --- | --- |
| CO/N=C(\C)c1ccc(Nc2nc(-c3cnc4c(c3)NCCO4)cn3ccnc23)cc1 [Compound 107, (E)-1-(4-((6-(2,3-dihydro-1H-pyrido[2,3-b][1,4]oxazin-7-yl)imidazo[1,2-a]pyrazin-8-yl)amino)phenyl)ethanone O-methyl oxime] | 17 |
| COc1cc(Nc2nc(-c3ccc4c(c3)C(=O)NCCO4)cn3ccnc23)ccc1N1CCN(C2COC2)CC1 [Compound 55, 7-(8-((3-methoxy-4-(4-(oxetan-3-yl)piperazin-1-yl)phenyl)amino)imidazo[1,2-a]pyrazin-6-yl)-3,4-dihydrobenzo[f][1,4]oxazepin-5(2H)-one] | 8 |
| c1cn2cc(-c3cnc4c(c3)NCCO4)nc(Nc3ccc(C4CCOCC4)cc3)c2n1 [Compound 39, 6-(2,3-dihydro-1H-pyrido[2,3-b][1,4]oxazin-7-yl)-N-(4-(tetrahydro-2H-pyran-4-yl)phenyl)imidazo[1,2-a]pyrazin-8-amine] | 7 |
| CC(C)n1cc(Nc2nc(-c3cnc4c(c3)NCCO4)cn3ccnc23)cn1 [Compound 36, 6-(2,3-dihydro-1H-pyrido[2,3-b][1,4]oxazin-7-yl)-N-(1-isopropyl-1H-pyrazol-4-yl)imidazo[1,2-a]pyrazin-8-amine] | 8 |
| c1cn2cc(-c3cnc4c(c3)NCCO4)nc(Nc3ccc(N4CCN5CCOC[C@@H]5C4)cc3)c2n1 [Compound 82, (S)-6-(2,3-dihydro-1H-pyrido[2,3-b][1,4]oxazin-7-yl)-N-(4-(hexahydropyrazino[2,1-c][1,4]oxazin-8(1H)-yl)phenyl)imidazo[1,2-a]pyrazin-8-amine] | 3 |
| COc1cc(Nc2nc(-c3cnc4c(c3)NCCO4)cn3ccnc23)ccc1OC1COC1 [Compound 30, 6-(2,3-dihydro-1H-pyrido[2,3-b][1,4]oxazin-7-yl)-N-(3-methoxy-4-(oxetan-3-yloxy)phenyl)imidazo[1,2-a]pyrazin-8-amine] | 2 |
| COc1cc(Nc2nc(-c3cnc4c(c3)NCCO4)cn3ccnc23)ccc1N1CC(C)(O)C1 [Compound 98, 1-(4-((6-(2,3-dihydro-1H-pyrido[2,3-b][1,4]oxazin-7-yl)imidazo[1,2-a]pyrazin-8-yl)amino)-2-methoxyphenyl)-3-methylazetidin-3-ol] | 33 |
| COc1cc(Nc2nc(-c3ccc4c(c3)OCCN4)cn3ccnc23)ccc1N1CCN(C2COC2)CC1 [Compound 6, 6-(3,4-dihydro-2H-benzo[b][1,4]oxazin-7-yl)-N-(3-methoxy-4-(4-(oxetan-3-yl)piperazin-1-yl)phenyl)imidazo[1,2-a]pyrazin-8-amine] | 7 |
| COc1cc(Nc2nc(-c3cnc4c(c3)NCCO4)cn3ccnc23)ccc1N1CCN(CC2(C)COC2)CC1 [Compound 28, 6-(2,3-dihydro-1H-pyrido[2,3-b][1,4]oxazin-7-yl)-N-(3-methoxy-4-(4-((3-methyloxetan-3-yl)methyl)piperazin-1-yl)phenyl)imidazo[1,2-a]pyrazin-8-amine] | 4 |
| COc1cc(Nc2nc(-c3cnc4c(c3)NCCO4)cn3ccnc23)ccc1N1CCOC(C)(C)C1 [Compound 81, 6-(2,3-dihydro-1H-pyrido[2,3-b][1,4]oxazin-7-yl)-N-(4-(2,2-dimethylmorpholino)-3-methoxyphenyl)imidazo[1,2-a]pyrazin-8-amine] | 14 |
| COc1cc(Nc2nc(-c3cnc4c(c3)NCCO4)cn3ccnc23)ccc1N1CC2COCC2C1 (stereo not drawn) [Compound 99, 6-(2,3-dihydro-1H-pyrido[2,3-b][1,4]oxazin-7-yl)-N-(3-methoxy-4-(tetrahydro-1H-furo[3,4-c]pyrrol-5(3H)-yl)phenyl)imidazo[1,2-a]pyrazin-8-amine] | 16 |
| COc1cc(Nc2nc(-c3cnc4c(c3)N(C)C(=O)CO4)cn3ccnc23)ccc1N1CCOCC1 [Compound 60, 7-(8-((3-methoxy-4-morpholinophenyl)amino)imidazo [1,2-a]pyrazin-6-yl)-1-methyl-1H-pyrido[2,3-b][1,4]oxazin-2(3H)-one] | 39 |
| c1cn2cc(-c3ccc4c(c3)CNCCO4)nc(Nc3ccc(N4CCOCC4)cc3)c2n1 [Compound 78, N-(4-morpholinophenyl)-6-(2,3,4,5-tetrahydrobenzo[f][1,4]oxazepin-7-yl)imidazo[1,2-a]pyrazin-8-amine] | 18 |
| COc1cc(Nc2nc(-c3cnc4c(c3)NCCO4)cn3ccnc23)ccc1N(C)C [Compound 35, N4-(6-(2,3-dihydro-1H-pyrido[2,3-b][1,4]oxazin-7-yl)imidazo[1,2-a]pyrazin-8-yl)-2-methoxy-N1,N1-dimethylbenzene-1,4-diamine] | 2 |
| c1cn2cc(-c3cnc4c(c3)NCCO4)nc(Nc3ccc4c(c3)OC[C@H]3COCCN43)c2n1 [Compound 43, (R)-N-(6-(2,3-dihydro-1H-pyrido[2,3-b][1,4]oxazin-7-yl)imidazo[1,2-a]pyrazin-8-yl)-2,4,4a,5-tetrahydro-1H-benzo[b][1,4]oxazino[4,3-d][1,4]oxazin-8-amine] | 9 |
| COc1cc(Nc2nc(-c3cnc4c(c3)NCCO4)cn3ccnc23)ccc1-n1ccnc1 [Compound 40, N-(4-(1H-imidazol-1-yl)-3-methoxyphenyl)-6-(2,3-dihydro-1H-pyrido[2,3-b][1,4]oxazin-7-yl)imidazo[1,2-a]pyrazin-8-amine] | 21 |
| CC(=O)N1CCN(c2ccc(Nc3nc(-c4cnc5c(c4)NCCO5)cn4ccnc34)cc2)CC1 [Compound 34] | 4 |
| CO/N=C(/C)c1ccc(Nc2nc(-c3cnc4c(c3)NCCO4)cn3ccnc23)cc1 [Compound 108, (Z)-1-(4-((6-(2,3-dihydro-1H-pyrido[2,3-b][1,4]oxazin-7-yl)imidazo[1,2-a]pyrazin-8-yl)amino)phenyl)ethanone O-methyl oxime] | 7 |
| COc1cc(Nc2nc(-c3cnc4c(c3)NCCO4)cn3ccnc23)ccc1N1CCN(C(=O)[C@H](C)O)CC1 [Compound 85, (S)-1-(4-(4-((6-(2,3-dihydro-1H-pyrido[2,3-b][1,4]oxazin-7-yl)imidazo[1,2-a]pyrazin-8-yl)amino)-2-methoxyphenyl)piperazin-1-yl)-2-hydroxypropan-1-one] | 3 |
| COc1cc(Nc2nc(-c3cnc4c(c3)NCCO4)cn3ccnc23)ccc1N1CCC2(CC1)OCCO2 [Compound 103, 6-(2,3-dihydro-1H-pyrido[2,3-b][1,4]oxazin-7-yl)-N-(3-methoxy-4-(1,4-dioxa-8-azaspiro[4.5]decan-8-yl)phenyl)imidazo[1,2-a]pyrazin-8-amine] | 3 |
| CC(C)N1CCN(c2ccc(Nc3nc(-c4cnc5c(c4)NCCO5)cn4ccnc34)cc2)CC1 [Compound 62, 6-(2,3-dihydro-1H-pyrido[2,3-b][1,4]oxazin-7-yl)-N-(4-(4-isopropylpiperazin-1-yl)phenyl)imidazo[1,2-a]pyrazin-8-amine] | 8 |
| COc1cc(Nc2nc(-c3cnc4c(c3)NCCO4)cn3ccnc23)ccc1OC1CCC1 [Compound 29, N-(4-cyclobutoxy-3-methoxyphenyl)-6-(2,3-dihydro-1H-pyrido[2,3-b][1,4]oxazin-7-yl)imidazo[1,2-a]pyrazin-8-amine] | 7 |
| COc1cc(Nc2nc(-c3cnc4c(c3)NCCS4)cn3ccnc23)ccc1N1CCOCC1 [Compound 58, 6-(2,3-dihydro-1H-pyrido[2,3-b][1,4]thiazin-7-yl)-N-(3-methoxy-4-morpholinophenyl)imidazo[1,2-a]pyrazin-8-amine] | 2 |
| C[C@H](O)[C@H]1CN(c2ccc(Nc3nc(-c4cnc5c(c4)NCCO5)cn4ccnc34)cc2)CCO1 [Compound 5, (S)-1-((R)-4-(4-((6-(2,3-dihydro-1H-pyrido[2,3-b][1,4]oxazin-7-yl)imidazo[1,2-a]pyrazin-8-yl)amino)phenyl)morpholin-2-yl)ethanol] | 6 |
| OC1(c2ccc(Nc3nc(-c4cnc5c(c4)NCCO5)cn4ccnc34)cc2)COC1 [Compound 102, 3-(4-((6-(2,3-dihydro-1H-pyrido[2,3-b][1,4]oxazin-7-yl)imidazo[1,2-a]pyrazin-8-yl)amino)phenyl)oxetan-3-ol] | 8 |
| OC1(c2ccc(Nc3nc(-c4cnc5c(c4)NCCO5)cn4ccnc34)cc2)CCC1 [Compound 101, 1-(4-((6-(2,3-dihydro-1H-pyrido[2,3-b][1,4]oxazin-7-yl)imidazo[1,2-a]pyrazin-8-yl)amino)phenyl)cyclobutanol] | 7 |
| c1cn2cc(-c3ccc4c(c3)NCCO4)nc(Nc3ccc(N4CCN(C5COC5)CC4)cc3)c2n1 [Example 24, 6-(3,4-dihydro-2H-benzo[b][1,4]oxazin-6-yl)-N-(4-(4-(oxetan-3-yl)piperazin-1-yl)phenyl)imidazo[1,2-a]pyrazin-8-amine] | 11 |
| COc1cc(Nc2nc(-c3cnc4c(c3)NCCO4)cn3ccnc23)ccc1N1CCC[C@](C)(O)C1 [Compound 52, (S)-1-(4-((6-(2,3-dihydro-1H-pyrido[2,3-b][1,4]oxazin-7-yl)imidazo[1,2-a]pyrazin-8-yl)amino)-2-methoxyphenyl)-3-methylpiperidin-3-ol] | 7 |
| COc1cc(Nc2nc(-c3cnc4c(c3)NCCO4)cn3ccnc23)ccc1N1CCC(=NO)CC1 [Compound 105, 1-(4-((6-(2,3-dihydro-1H-pyrido[2,3-b][1,4]oxazin-7-yl)imidazo[1,2-a]pyrazin-8-yl)amino)-2-methoxyphenyl)piperidin-4-one oxime] | 5 |
| COc1cc(Nc2nc(-c3ccc4c(c3)C(=O)NCCO4)cn3ccnc23)ccc1N1CCOCC1 [Compound 2, 7-(8-((3-methoxy-4-morpholinophenyl)amino)imidazo [1,2-a]pyrazin-6-yl)-3,4-dihydrobenzo[f][1,4]oxazepin-5(2H)-one] | 6 |
